Results published in PubChem BioAssay (NCI).
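How tested: cells in 96-well plates exposed to compound for 48 hours at five concentrations. TGI denotes the concentration required for complete inhibition of growth.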

Assays:
Test in all cases: NCI tumour cell line growth inhibition, 48 h
DU-145 prostate = tested on: DU-145 prostate
RPMI-8226 leukemia = tested on: RPMI-8226 leukemia
MDA-N = tested on: MDA-N
A498 renal = tested on: A498 renal
COLO 205 colon = tested on: COLO 205 colon
NCI-H23 lung = tested on: NCI-H23 lung
CAKI-1 renal = tested on: CAKI-1 renal
HL-60(TB) leukemia = tested on: HL-60(TB) leukemia
OVCAR-8 ovarian = tested on: OVCAR-8 ovarian
BT-549 breast = tested on: BT-549 breast
EKVX NSCLC = tested on: EKVX NSCLC
HOP-92 NSCLC = tested on: HOP-92 NSCLC
NCI-H226 lung = tested on: NCI-H226 lung
786-0 renal = tested on: 786-0 renal
IGROV1 ovarian = tested on: IGROV1 ovarian
SF-539 CNS = tested on: SF-539 CNS
NCI-H460 lung = tested on: NCI-H460 lung
NCI/ADR-RES ovarian = tested on: NCI/ADR-RES ovarian
A549 NSCLC = tested on: A549 NSCLC
SW-620 colon = tested on: SW-620 colon
UACC-257 melanoma = tested on: UACC-257 melanoma
PC-3 prostate = tested on: PC-3 prostate
MOLT-4 leukemia = tested on: MOLT-4 leukemia
SF-295 CNS = tested on: SF-295 CNS
HOP-62 NSCLC = tested on: HOP-62 NSCLC
U251 CNS = tested on: U251 CNS
LOX IMVI melanoma = tested on: LOX IMVI melanoma
SK-MEL-5 melanoma = tested on: SK-MEL-5 melanoma
NCI-H522 lung = tested on: NCI-H522 lung
RXF 393 renal = tested on: RXF 393 renal
HCT-116 colon = tested on: HCT-116 colon
UO-31 renal = tested on: UO-31 renal
OVCAR-5 ovarian = tested on: OVCAR-5 ovarian
SR leukemia = tested on: SR leukemia
KM12 colon = tested on: KM12 colon
MCF7 breast = tested on: MCF7 breast
K-562 leukemia = tested on: K-562 leukemia
HT29 colon = tested on: HT29 colon
OVCAR-4 ovarian = tested on: OVCAR-4 ovarian
SK-MEL-2 melanoma = tested on: SK-MEL-2 melanoma
SNB-19 CNS = tested on: SNB-19 CNS
HS 578T breast = tested on: HS 578T breast
MALME-3M melanoma = tested on: MALME-3M melanoma
HCT-15 colon = tested on: HCT-15 colon
MDA-MB-231 breast = tested on: MDA-MB-231 breast
MDA-MB-435 = tested on: MDA-MB-435
TK-10 renal = tested on: TK-10 renal
SK-MEL-28 melanoma = tested on: SK-MEL-28 melanoma
SF-268 CNS = tested on: SF-268 CNS
ACHN renal = tested on: ACHN renal
SN12C renal = tested on: SN12C renal
SNB-75 CNS = tested on: SNB-75 CNS
HCC-2998 colon = tested on: HCC-2998 colon
M14 melanoma = tested on: M14 melanoma
CCRF-CEM leukemia = tested on: CCRF-CEM leukemia

BrCC(Br)(c1ccccc1)c1ccccc1-c1cc(-c2ccccc2)cc(-c2ccccc2)n1 (stereo not given)
TGI (DU-145 prostate): > 45.5 µM
TGI (RPMI-8226 leukemia): 18.2 µM
TGI (MDA-N): 10.9 µM
TGI (A498 renal): 15.6 µM
TGI (COLO 205 colon): 2.81 µM
TGI (NCI-H23 lung): 36 µM
TGI (CAKI-1 renal): 23.4 µM
TGI (HL-60(TB) leukemia): 2.33 µM
TGI (OVCAR-8 ovarian): 16.7 µM
TGI (BT-549 breast): 10.1 µM
TGI (EKVX NSCLC): > 100 µM
TGI (HOP-92 NSCLC): 11.4 µM
TGI (NCI-H226 lung): 15.1 µM
TGI (786-0 renal): 13.8 µM
TGI (IGROV1 ovarian): 19.4 µM
TGI (SF-539 CNS): 19 µM
TGI (NCI-H460 lung): 11.9 µM
TGI (NCI/ADR-RES ovarian): > 100 µM
TGI (A549 NSCLC): 25.5 µM
TGI (SW-620 colon): 14.2 µM
TGI (UACC-257 melanoma): 8.92 µM
TGI (PC-3 prostate): 10.6 µM
TGI (MOLT-4 leukemia): 17.3 µM
TGI (SF-295 CNS): 8.92 µM
TGI (HOP-62 NSCLC): 23.2 µM
TGI (U251 CNS): 5.85 µM
TGI (LOX IMVI melanoma): 5.88 µM
TGI (SK-MEL-5 melanoma): 3.82 µM
TGI (NCI-H522 lung): 10.5 µM
TGI (RXF 393 renal): 5.92 µM
TGI (HCT-116 colon): 12.3 µM
TGI (UO-31 renal): 26.8 µM
TGI (OVCAR-5 ovarian): 8.35 µM
TGI (SR leukemia): > 52.7 µM
TGI (KM12 colon): 12.6 µM
TGI (MCF7 breast): 4.12 µM
TGI (K-562 leukemia): 8.69 µM
TGI (HT29 colon): 6.65 µM
TGI (OVCAR-4 ovarian): 53.9 µM
TGI (SK-MEL-2 melanoma): 5.47 µM
TGI (SNB-19 CNS): 31.9 µM
TGI (HS 578T breast): 26 µM
TGI (MALME-3M melanoma): 16.4 µM
TGI (HCT-15 colon): 30 µM
TGI (MDA-MB-231 breast): 11.4 µM
TGI (MDA-MB-435): 4.63 µM
TGI (TK-10 renal): 21.5 µM
TGI (SK-MEL-28 melanoma): 25.3 µM
TGI (SF-268 CNS): 8.5 µM
TGI (ACHN renal): 23.9 µM
TGI (SN12C renal): 28 µM
TGI (SNB-75 CNS): 4.08 µM
TGI (HCC-2998 colon): 9.8 µM
TGI (M14 melanoma): 21.6 µM
TGI (CCRF-CEM leukemia): > 53.3 µM
